Data as given in the supplement of paper PMC8671470.
± gives the standard deviation of the averaged measurements.

system: HL-60; experiment: cell viability (% survival relative to DMSO control); higher = less cytotoxic; settings: 0.001 µM; 72 h; co-treatment: pictilisib 100 nM
Method in brief: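 HL-60 cells grown in RPMI 1640 with 10% FBS were rescreened against the full library in 384-well plates, in duplicate, at five tenfold concentrations from 1 to 10,000 nM, alongside DMSO or 100 nM of one of three metabolic inhibitors for 72 h at 37 °C, 5% CO2. Reference wells contained DMSO or 10 μM proteasome inhibitor. Viability was read with CellTiter-Glo and normalised to these reference wells, and where reported, area under the curve was taken from four-parameter log-logistic fits in drc and PharmacoGx.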

In order of falling cell viability:
1. Fc1ccc(CNc2ncnc3ccc(F)cc23)cc1 [Spautin 1]  100 ± 2.8%
2. CN1CC(=O)N2[C@H](c3ccc4c(c3)OCO4)c3[nH]c4ccccc4c3C[C@@H]2C1=O [Tadalafil]  99.6 ± 3%
3. Cn1c2cc(S(C)=O)sc2c2cnn(Cc3cccc(N)c3)c(=O)c21 (centres undefined) [TEPP-46]  87.3 ± 9.9%
4. CCCCCCCCCCCCCCOc1ccc(C(=O)O)o1 [TOFA]  80.5 ± 24%

same assay, conditions: 0.01 µM; 72 h; co-treatment: AZD3965 100 nM

In order of falling cell viability:
1. Cn1c2cc(S(C)=O)sc2c2cnn(Cc3cccc(N)c3)c(=O)c21 (centres undefined) [TEPP-46]  108 ± 2.5%
2. CN1CC(=O)N2[C@H](c3ccc4c(c3)OCO4)c3[nH]c4ccccc4c3C[C@@H]2C1=O [Tadalafil]  105.1 ± 0.41%
3. CNC(=C[N+](=O)[O-])NCCSCc1ccc(CN(C)C)o1 [Ranitidine]  102 ± 2.5%
4. CCCCCCCCCCCCCCOc1ccc(C(=O)O)o1 [TOFA]  101 ± 5.1%
5. Fc1ccc(CNc2ncnc3ccc(F)cc23)cc1 [Spautin 1]  99.98 ± 0.92%
6. COc1cc(C2Oc3cc(C4Oc5cc(O)cc(O)c5C(=O)C4O)ccc3OC2CO)ccc1O (centres undefined) [Silibinin]  99.1 ± 2.1%
7. NC(CCC(=O)NC(CSCc1ccc(Br)cc1)C(=O)NCC(=O)OC1CCCC1)C(=O)OC1CCCC1 (centres undefined) [S-para-Bromobenzylglutathione cyclopentyl diester]  98.9 ± 1.1%
8. Nc1nc(O)c2c(CCc3ccc(C(=O)N[C@@H](CCC(=O)O)C(=O)O)cc3)c[nH]c2n1 [Pemetrexed]  98.6 ± 2.1%
9. C#CCN[C@@H]1CCc2ccccc21 [Rasagiline]  96.6 ± 9.6%
10. CC(C)(F)C[C@H](N[C@@H](c1ccc(-c2ccc(S(C)(=O)=O)cc2)cc1)C(F)(F)F)C(=O)NC1(C#N)CC1 [Odanacatib]  95.1 ± 11%
11. C=C1NC(=O)c2cc(CN(C)c3ccc(C(=O)N[C@@H](CCC(=O)O)C(=O)O)s3)ccc2N1 [Raltitrexed]  74.1 ± 32%

same assay, conditions: 0.01 µM; 72 h; co-treatment: DMSO vehicle

In order of rising cell viability:
1. CNC(=C[N+](=O)[O-])NCCSCc1ccc(CN(C)C)o1 [Ranitidine]  87.7 ± 16%
2. C=C1NC(=O)c2cc(CN(C)c3ccc(C(=O)N[C@@H](CCC(=O)O)C(=O)O)s3)ccc2N1 [Raltitrexed]  88.5 ± 22%
3. NC(CCC(=O)NC(CSCc1ccc(Br)cc1)C(=O)NCC(=O)OC1CCCC1)C(=O)OC1CCCC1 (centres undefined) [S-para-Bromobenzylglutathione cyclopentyl diester]  91.6 ± 11%
4. Fc1ccc(CNc2ncnc3ccc(F)cc23)cc1 [Spautin 1]  97.89 ± 0.34%
5. CC(C)(F)C[C@H](N[C@@H](c1ccc(-c2ccc(S(C)(=O)=O)cc2)cc1)C(F)(F)F)C(=O)NC1(C#N)CC1 [Odanacatib]  98.4 ± 1.8%
6. Nc1nc(O)c2c(CCc3ccc(C(=O)N[C@@H](CCC(=O)O)C(=O)O)cc3)c[nH]c2n1 [Pemetrexed]  100.6 ± 0.94%
7. COc1cc(C2Oc3cc(C4Oc5cc(O)cc(O)c5C(=O)C4O)ccc3OC2CO)ccc1O (centres undefined) [Silibinin]  100.8 ± 0.69%
8. C#CCN[C@@H]1CCc2ccccc21 [Rasagiline]  102 ± 4.3%
9. CCCCCCCCCCCCCCOc1ccc(C(=O)O)o1 [TOFA]  102 ± 3.9%
10. Cn1c2cc(S(C)=O)sc2c2cnn(Cc3cccc(N)c3)c(=O)c21 (centres undefined) [TEPP-46]  103 ± 3.2%
11. CN1CC(=O)N2[C@H](c3ccc4c(c3)OCO4)c3[nH]c4ccccc4c3C[C@@H]2C1=O [Tadalafil]  103 ± 3.7%

same assay, conditions: 0.01 µM; 72 h; co-treatment: GSK2194069 100 nM

In order of rising cell viability:
1. C=C1NC(=O)c2cc(CN(C)c3ccc(C(=O)N[C@@H](CCC(=O)O)C(=O)O)s3)ccc2N1 [Raltitrexed]  79.7 ± 24%
2. NC(CCC(=O)NC(CSCc1ccc(Br)cc1)C(=O)NCC(=O)OC1CCCC1)C(=O)OC1CCCC1 (centres undefined) [S-para-Bromobenzylglutathione cyclopentyl diester]  85.8 ± 36%
3. CC(C)(F)C[C@H](N[C@@H](c1ccc(-c2ccc(S(C)(=O)=O)cc2)cc1)C(F)(F)F)C(=O)NC1(C#N)CC1 [Odanacatib]  89.4 ± 3.8%
4. CNC(=C[N+](=O)[O-])NCCSCc1ccc(CN(C)C)o1 [Ranitidine]  89.5 ± 1.4%
5. Nc1nc(O)c2c(CCc3ccc(C(=O)N[C@@H](CCC(=O)O)C(=O)O)cc3)c[nH]c2n1 [Pemetrexed]  95.7 ± 5.5%
6. CCCCCCCCCCCCCCOc1ccc(C(=O)O)o1 [TOFA]  96.3 ± 8.4%
7. Fc1ccc(CNc2ncnc3ccc(F)cc23)cc1 [Spautin 1]  100 ± 4.9%
8. COc1cc(C2Oc3cc(C4Oc5cc(O)cc(O)c5C(=O)C4O)ccc3OC2CO)ccc1O (centres undefined) [Silibinin]  101 ± 0.25%
9. Cn1c2cc(S(C)=O)sc2c2cnn(Cc3cccc(N)c3)c(=O)c21 (centres undefined) [TEPP-46]  106 ± 4.1%
10. CN1CC(=O)N2[C@H](c3ccc4c(c3)OCO4)c3[nH]c4ccccc4c3C[C@@H]2C1=O [Tadalafil]  106 ± 1.3%
11. C#CCN[C@@H]1CCc2ccccc21 [Rasagiline]  107 ± 4.2%

same assay, conditions: 0.01 µM; 72 h; co-treatment: pictilisib 100 nM

In order of rising cell viability:
1. CNC(=C[N+](=O)[O-])NCCSCc1ccc(CN(C)C)o1 [Ranitidine]  70.3 ± 19%
2. C=C1NC(=O)c2cc(CN(C)c3ccc(C(=O)N[C@@H](CCC(=O)O)C(=O)O)s3)ccc2N1 [Raltitrexed]  78.4 ± 35%
3. C#CCN[C@@H]1CCc2ccccc21 [Rasagiline]  87.5 ± 12%
4. NC(CCC(=O)NC(CSCc1ccc(Br)cc1)C(=O)NCC(=O)OC1CCCC1)C(=O)OC1CCCC1 (centres undefined) [S-para-Bromobenzylglutathione cyclopentyl diester]  87.5 ± 17%
5. CN1CC(=O)N2[C@H](c3ccc4c(c3)OCO4)c3[nH]c4ccccc4c3C[C@@H]2C1=O [Tadalafil]  94.8 ± 7.5%
6. Fc1ccc(CNc2ncnc3ccc(F)cc23)cc1 [Spautin 1]  96.8 ± 2.8%
7. CCCCCCCCCCCCCCOc1ccc(C(=O)O)o1 [TOFA]  100 ± 1.6%
8. Nc1nc(O)c2c(CCc3ccc(C(=O)N[C@@H](CCC(=O)O)C(=O)O)cc3)c[nH]c2n1 [Pemetrexed]  100.6 ± 0.34%
9. COc1cc(C2Oc3cc(C4Oc5cc(O)cc(O)c5C(=O)C4O)ccc3OC2CO)ccc1O (centres undefined) [Silibinin]  103 ± 3.5%
10. Cn1c2cc(S(C)=O)sc2c2cnn(Cc3cccc(N)c3)c(=O)c21 (centres undefined) [TEPP-46]  106 ± 5.4%
11. CC(C)(F)C[C@H](N[C@@H](c1ccc(-c2ccc(S(C)(=O)=O)cc2)cc1)C(F)(F)F)C(=O)NC1(C#N)CC1 [Odanacatib]  112 ± 12%

same assay, conditions: 0.1 µM; 72 h; co-treatment: AZD3965 100 nM

In order of falling cell viability:
1. Cn1c2cc(S(C)=O)sc2c2cnn(Cc3cccc(N)c3)c(=O)c21 (centres undefined) [TEPP-46]  113 ± 11%
2. Nc1nc(O)c2c(CCc3ccc(C(=O)N[C@@H](CCC(=O)O)C(=O)O)cc3)c[nH]c2n1 [Pemetrexed]  107 ± 3.3%
3. COc1cc(C2Oc3cc(C4Oc5cc(O)cc(O)c5C(=O)C4O)ccc3OC2CO)ccc1O (centres undefined) [Silibinin]  107 ± 14%
4. CCCCCCCCCCCCCCOc1ccc(C(=O)O)o1 [TOFA]  104 ± 9.2%
5. CC(C)(F)C[C@H](N[C@@H](c1ccc(-c2ccc(S(C)(=O)=O)cc2)cc1)C(F)(F)F)C(=O)NC1(C#N)CC1 [Odanacatib]  102 ± 1.2%
6. NC(CCC(=O)NC(CSCc1ccc(Br)cc1)C(=O)NCC(=O)OC1CCCC1)C(=O)OC1CCCC1 (centres undefined) [S-para-Bromobenzylglutathione cyclopentyl diester]  102 ± 3.9%
7. Fc1ccc(CNc2ncnc3ccc(F)cc23)cc1 [Spautin 1]  101 ± 1.4%
8. C#CCN[C@@H]1CCc2ccccc21 [Rasagiline]  100 ± 11%
9. CNC(=C[N+](=O)[O-])NCCSCc1ccc(CN(C)C)o1 [Ranitidine]  99.6 ± 4.2%
10. CN1CC(=O)N2[C@H](c3ccc4c(c3)OCO4)c3[nH]c4ccccc4c3C[C@@H]2C1=O [Tadalafil]  97.6 ± 2.9%
11. C=C1NC(=O)c2cc(CN(C)c3ccc(C(=O)N[C@@H](CCC(=O)O)C(=O)O)s3)ccc2N1 [Raltitrexed]  76.3 ± 41%

same assay, conditions: 0.1 µM; 72 h; co-treatment: DMSO vehicle

In order of falling cell viability:
1. Nc1nc(O)c2c(CCc3ccc(C(=O)N[C@@H](CCC(=O)O)C(=O)O)cc3)c[nH]c2n1 [Pemetrexed]  112 ± 4.9%
2. CNC(=C[N+](=O)[O-])NCCSCc1ccc(CN(C)C)o1 [Ranitidine]  105.91 ± 0.021%
3. C#CCN[C@@H]1CCc2ccccc21 [Rasagiline]  102 ± 1.8%
4. CC(C)(F)C[C@H](N[C@@H](c1ccc(-c2ccc(S(C)(=O)=O)cc2)cc1)C(F)(F)F)C(=O)NC1(C#N)CC1 [Odanacatib]  100 ± 1.1%
5. C=C1NC(=O)c2cc(CN(C)c3ccc(C(=O)N[C@@H](CCC(=O)O)C(=O)O)s3)ccc2N1 [Raltitrexed]  55.7 ± 5.9%
